Each structure is given as a SMILES string.

The target in this data set is T1, Proteinase K (Parengyodontium album, UniProt P06873).
T1 construct: purchased RayBiotech, Norcross, GA, USA
Kind of data set: Peptide degradation by proteinase K. The class given is in vitro ADME. The conditions noted are these: proteinase K 0.05 mg ml^-1, 37°C, 4 h, D-RADA16 0.2 mg ml^-1, intact peptide by HPLC (C18), three replicates. On the procedure: Proteinase K solution (RayBiotech, Norcross, GA, USA) (0.05 mg ml^−1) was added in D-RADA16 and nHA/PA66/D-RADA16 groups, respectively. All samples were incubated at 37°C, and 400 µl aliquots were removed at various time points (1, 2, 4, 6, 8, 12, 24 and 48 h). The enzymatic reaction was terminated by the addition of phenylmethanesulfonyl fluoride (working concentration: 0.1 to 1 mM) and the concentration of the intact peptide were analysed by HPLC (LCMS-2020; Shimadzu, Kyoto, Japan) under the following conditions: Venusil XBP C18, 5 µm, 4.6 × 50 mm (Agela, Tianjin, China); sample injection volume: 100 µl; gradient elution: A, 0.035% trifluoroacetic acid (TFA) in water; and B, 0.035% TFA in acetonitrile/water (80 : 20, vol/vol). A gradient of 10–100% B in 10 min was conducted. The experiment was conducted in three replicates.
Proteinase K, a highly non-specific proteolytic enzyme, was used to examine the stability of D-RADA16 in the various composites. The concentration of each D-RADA16 was set to 0.2 mg ml^−1. And after 4 h, only 30–40% of the peptide remained in the control samples, whereas over 50% of the peptide still remained in the experimental samples. Similar results were observed after 24 and 48 h (figure 1d).

T1 sequence (P06873 106-384): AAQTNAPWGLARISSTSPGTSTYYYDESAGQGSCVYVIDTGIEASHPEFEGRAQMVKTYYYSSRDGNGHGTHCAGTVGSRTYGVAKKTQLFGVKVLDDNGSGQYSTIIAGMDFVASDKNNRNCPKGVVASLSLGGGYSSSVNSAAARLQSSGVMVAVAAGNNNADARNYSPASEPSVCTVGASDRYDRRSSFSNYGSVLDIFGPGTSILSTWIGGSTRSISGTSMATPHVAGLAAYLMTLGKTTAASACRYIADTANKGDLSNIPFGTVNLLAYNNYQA

Turning to `CC(=O)N[C@H](CCCNC(=N)N)C(=O)N[C@H](C)C(=O)N[C@H](CC(=O)O)C(=O)N[C@H](C)C(=O)N[C@H](CCCNC(=N)N)C(=O)N[C@H](C)C(=O)N[C@H](CC(=O)O)C(=O)N[C@H](C)C(=O)N[C@H](CCCNC(=N)N)C(=O)N[C@H](C)C(=O)N[C@H](CC(=O)O)C(=O)N[C@H](C)C(=O)N[C@H](CCCNC(=N)N)C(=O)N[C@H](C)C(=O)N[C@H](CC(=O)O)C(=O)N[C@H](C)C(N)=O` [D-RADA16, Ac-RADARADARADARADA-CONH2], the intact peptide remaining is reported as 30–40%.

The values above are taken from PMC7211882, “Controlled release of basic fibroblast growth factor from a peptide biomaterial for bone regeneration” (Royal Society Open Science, 2020).
